The supplement of paper PMC13380429

What was measured:
Settings in all cases: 72 h
Calu-3 [1] = test: relative viability EC50 (midpoint between 100% and the lowest measured viability); higher = less toxic
Calu-3 [2] = test: cell viability relative to DMSO; higher = less toxic
HepG2 [3] = test: as above
Vero E6 [4] = test: as above
U2OS [5] = test: as above
Caco-2 [6] = test: as above
Calu-3 [7] = test: drug sensitivity score (DSS) for viability; higher = more toxic; extreme values may be limits of the assay
HepG2 [8] = test: as above
Vero E6 [9] = test: as above
U2OS [10] = test: as above
Caco-2 [11] = test: as above
HepG2 [12] = test: relative viability EC50 (midpoint between 100% and the lowest measured viability); higher = less toxic
U2OS [13] = test: as above
Vero E6 [14] = test: as above

SMILES	relative viability EC50 (Calu-3 [1])	cell viability (Calu-3 [2]; 1 nM)	cell viability (Calu-3 [2]; 10 nM)	cell viability (Calu-3 [2]; 100 nM)	cell viability (Calu-3 [2]; 1000 nM)	cell viability (Calu-3 [2]; 10000 nM)	cell viability (HepG2 [3]; 1 nM)	cell viability (HepG2 [3]; 10 nM)	cell viability (HepG2 [3]; 100 nM)	cell viability (HepG2 [3]; 1000 nM)	cell viability (HepG2 [3]; 10000 nM)	cell viability (Vero E6 [4]; 1 nM)	cell viability (Vero E6 [4]; 10 nM)	cell viability (Vero E6 [4]; 100 nM)	cell viability (Vero E6 [4]; 1000 nM)	cell viability (Vero E6 [4]; 10000 nM)	cell viability (U2OS [5]; 1 nM)	cell viability (U2OS [5]; 10 nM)	cell viability (U2OS [5]; 100 nM)	cell viability (U2OS [5]; 1000 nM)	cell viability (U2OS [5]; 10000 nM)	cell viability (Caco-2 [6]; 1 nM)	cell viability (Caco-2 [6]; 10 nM)	cell viability (Caco-2 [6]; 100 nM)	cell viability (Caco-2 [6]; 1000 nM)	cell viability (Caco-2 [6]; 10000 nM)	drug sensitivity score (Calu-3 [7])	drug sensitivity score (HepG2 [8])	drug sensitivity score (Vero E6 [9])	drug sensitivity score (U2OS [10])	drug sensitivity score (Caco-2 [11])	relative viability EC50 (HepG2 [12])	relative viability EC50 (U2OS [13])	relative viability EC50 (Vero E6 [14])
CN1CCN(c2ccc(Nc3ncc4cc(C#N)c(=O)n(C5CCCC5)c4n3)cc2)CC1	> 10 µM	105%	103%	98.9%	87.9%	111%	99.8%	99.7%	102%	88.8%	52.9%	105%	107%	107%	99.1%	58.1%	100%	98%	102%	98.3%	70%	98%	93.9%	101%	92.3%	74.9%	0	4.2	2.2	1.5	2			
O=C(c1cn(Cc2cncn2Cc2ccc(Br)cc2)cc1-c1cccc2ccccc12)N1CCOCC1		104%	96.7%	98.6%	68.1%	72.1%	107%	90.6%	98.3%	57.1%	16.3%	99.8%	97.7%	95.4%	88.1%	64.5%	97.3%	99.4%	90.5%	80.3%	39.9%	99.1%	96.1%	94.4%	78.1%	63.5%	5.6	9.8	2.9	5.5	4.3	0.972 µM	1.49 µM	
CC(C)(C)c1ccc(NC(=O)N2CCN(c3ncccc3Cl)CC2)cc1 [BCTC]		98.1%	101%	99.5%	102%	71.2%	99.3%	92.7%	96.7%	102%	93.3%	99%	101%	100%	94.4%	86.1%	99.3%	106%	97.4%	101%	95%	88.8%	99.6%	92.8%	89.9%	62.2%	1.1	0	0.5	0	3	> 10 µM	> 10 µM	> 10 µM
CC(C)CCN1c2nc(Nc3cc(F)c(O)c(F)c3)ncc2N(C)C(=O)[C@@H]1C [BI-D1870]		96%	107%	90.2%	83.7%	63.1%	105%	92.8%	102%	97.6%	58.9%	105%	98.7%	96.5%	86.2%	30.9%	102%	103%	99%	98.7%	71.4%	95.1%	102%	97.5%	96.6%	71.1%	3.5	2.4	6.1	1.4	1.8			1.74 µM
Nc1ccc2ncnc(NCCc3ccc(Oc4ccccc4)cc3)c2c1 [EVP4593]	> 10 µM	106%	98.9%	97.7%	92.1%	86.5%	109%	109%	78.1%	20.2%	19.4%	93.5%	90.2%	91.1%	73.3%	77%	103%	96.3%	94.7%	67.4%	64.5%	104%	96.9%	88%	78.4%	74.5%	0.3	18	4.4	6.3	4.3	0.149 µM		
NC(=S)N/N=C/c1coc2ccccc2c1=O.[Cl][Cu][Cl] [FPA-124]	> 10 µM	104%	103%	102%	99%	106%	94.5%	101%	97.5%	109%	95.3%						105%	99.1%	101%	97.3%	99.8%	106%	103%	96.1%	104%	70.4%	0	0		0	1	> 10 µM	> 10 µM	
Cc1sc2c(c1C)C(c1ccc(Cl)cc1)=N[C@@H](CC(=O)Nc1ccc(O)cc1)c1nnc(C)n1-2 [OTX015]		109%	113%	108%	82.3%	55.9%	106%	110%	85.1%	47.4%	24.9%	97.5%	92.7%	84.5%	21.8%	8%	99.7%	102%	89.3%	62.9%	38.8%	105%	94.5%	95.6%	84.6%	53.1%	4.7	11.6	16.3	8.2	4.3	0.434 µM	0.592 µM	0.298 µM
COc1ccc(C(=O)N2CCCC2=O)cc1 [aniracetam]																											0	0	0	0				
Cn1cnc2c(F)c(Nc3ccc(Br)cc3F)c(C(=O)NOCCO)cc21 [binimetinib]	0.078 µM	94.7%	77.5%	66.4%	59.9%	37.2%	96%	83.6%	38%	23.7%	20.8%	97.2%	92.4%	72.6%	56.5%	51.2%	97.9%	91.4%	92%	93.4%	43.9%	94%	87.3%	77.2%	73%	65.6%	14.1	23.5	11.5	4.1	8.1	0.0323 µM	2.2 µM	
O=C(N[C@H](CO)[C@H](O)c1ccc([N+](=O)[O-])cc1)C(Cl)Cl [chloramphenicol]																											0	1.1	0	0				
Oc1ccc(Cl)cc1Cc1cc(Cl)ccc1O [dichlorophen]							105%	89.4%	96.9%	97.9%	76.6%	106%	99.4%	104%	97.5%	86.7%	101%	95.1%	96.7%	99.7%	93.5%	107%	88.9%	108%	70.1%	54.6%		1.1	0.3	0	5.9	> 10 µM	> 10 µM	> 10 µM
O=C(O)Cc1ccccc1Nc1c(Cl)cccc1Cl [diclofenac]																											0		0	0				
COc1ccc(-c2oc3c(CC=C(C)C)c(O[C@@H]4O[C@H](CO)[C@@H](O)[C@H](O)[C@H]4O)cc(O)c3c(=O)c2O[C@@H]2O[C@@H](C)[C@H](O)[C@@H](O)[C@H]2O)cc1 [icariin]																											0	0	0	0				
N[C@@H](Cc1cc(I)c(Oc2ccc(O)c(I)c2)c(I)c1)C(=O)O [liothyronine]		98.9%	96.8%	92.5%	93.5%	95%	102%	104%	107%	96.6%		104%	92.4%	92.6%	88.6%	91.3%	97.1%	97.5%	93.4%	96%	93.5%	93.8%	98.5%	96.7%	98.1%	96.5%	0	0	1	0	0			
CC(C)(O)[C@@H]1[C@H]2OC(=O)[C@@H]1[C@]1(O)C[C@H]3O[C@]34C(=O)O[C@H]2[C@]14C [picrotin]																											0	0		0				
CC(C)Cc1ccc([C@@H](C)C(=O)NS(C)(=O)=O)cc1 [reparixin]																											0	0	0	0				
CS(=O)(=O)c1ccc(-c2cn3ccccc3n2)cc1 [zolimidine]							117%	104%	87.3%	98.6%	93.8%	107%	107%	105%	94.4%	88%	100%	94.7%	94.8%	93.5%	95.9%							0	0.3	0		> 10 µM	> 10 µM	> 10 µM
